From patent US20220226484A1, “THERAPEUTIC PEPTIDES” (COHBAR, INC., priority 2019, published 2022) come the findings set out here.

Positions of bridges follow the written chain, without caps; N, C: chain ends. Non-standard residues stand in square brackets, D forms with d. Primed or numbered codes have the meaning given here. Chains are numbered I, II in the order given. No end group written: not given here. PEG12′ = not defined here; Nle = CCCC[C@H](N)C(=O)O

Assay [1] concerns 3T3-L1 Mouse Adipocytes. Description: Free fatty acid levels in cultured mouse adipocytes. The assay is classed as cell-based. To be noted: peptide 10 μM, 1 nM isoproterenol, relative to isoproterenol treated cells. The procedure: The effect of the peptides on fatty acid metabolism can be assessed using an assay of free fatty acid levels in cultured cells such as mouse adipocytes. Peptides were initially prepared as 10 mM stock in DMSO and used at a final concentration of 10 μM (0.1% DMSO). […] Mouse 3T3-L1 cells purchased from ZenBio were seeded at 3,000 cells per well in 96-well plates in Pre-adipocyte Medium (Zen-Bio) and grown to confluence at 37° C. in a humidified atmosphere of 5% CO2/95% air. Two days after confluence, cells were placed in Adipocyte Differentiation Medium (Zen-Bio) and cultured for three additional days at 37° C. in a humidified atmosphere of 5% CO2/95% air. The culture media was then replaced with Adipocyte Maintenance Medium (Zen-Bio) and the cells maintained for an additional 9-12 days at 37° C. in a humidified atmosphere of 5% CO2/95% air with partial medium replacement every other day. Following 12-15 days of differentiation, test peptides were added at a final concentration of 10 μM in 0.1% DMSO and incubated for 20-22 hours in Adipocyte Maintenance Medium at 37° C. in a humidified atmosphere of 5% CO2/95% air. After 20-22 hours, 1 nM isoproterenol was added to all wells except untreated controls and test peptides were replenished. Insulin at 100 nM was added to control wells. Cells were incubated for 3 hours in Assay Buffer (Zen-Bio) at 37° C. in a humidified atmosphere of 5% CO2/95% air. Free fatty acid concentrations in the media were determined using a Free Fatty Acid Assay kit (Zen-Bio) according to the manufacturer's instructions using a Cytation 3 plate reader at 540 nm (BioTek, Winooski, Vt.). Absorbance values were corrected for untreated background and expressed relative to isoproterenol treated cells. Treatment with isoproterenol (1 nM) alone was used as the free fatty acid level stimulatory control. The relative standard deviation of the isoproterenol control was <10%. […] Free fatty acid levels for insulin (100 nM) treatment were <5% of the isoproterenol control value.
The effect of the peptides on fatty acid metabolism was assessed using an assay of free fatty acid levels in cultured cells such as mouse adipocytes. Peptides were initially prepared as 10 mM stock in DMSO and used at a final concentration of 10 μM (0.1% DMSO). […] Mouse 3T3-L1 cells purchased from ZenBio were seeded at 3,000 cells per well in 96-well plates in Pre-adipocyte Medium (Zen-Bio) and grown to confluence at 37° C. in a humidified atmosphere of 5% CO2/95% air. Two days after confluence, cells were placed in Adipocyte Differentiation Medium (Zen-Bio) and cultured for three additional days at 37° C. in a humidified atmosphere of 5% CO2/95% air. The culture media was then replaced with Adipocyte Maintenance Medium (Zen-Bio) and the cells maintained for an additional 9-12 days at 37° C. in a humidified atmosphere of 5% CO2/95% air with partial medium replacement every other day. Following 12-15 days of differentiation, test peptides were added at a final concentration of 10 μM in 0.1% DMSO and incubated for 20-22 hours in Adipocyte Maintenance Medium at 37° C. in a humidified atmosphere of 5% CO2/95% air. After 20-22 hours, 1 nM isoproterenol was added to all wells except untreated controls and test peptides were replenished. Insulin at 100 nM was added to control wells. Cells were incubated for 3 hours in Assay Buffer (Zen-Bio) at 37° C. in a humidified atmosphere of 5% CO2/95% air. Free fatty acid concentrations in the media were determined using a Free Fatty Acid Assay kit (Zen-Bio) according to the manufacturer's instructions using a Cytation 3 plate reader at 540 nm (BioTek, Winooski, Vt.). Absorbance values were corrected for untreated background and expressed relative to isoproterenol treated cells. Treatment with isoproterenol (1 nM) alone was used as the free fatty acid level stimulatory control. The relative standard deviation of the isoproterenol control was <10%. […]

In assay [2] the test system is H4IIE Rat Hepatoma Cells. The assay is described as follows: Insulin-dependent effect on glucose production by cultured rat liver cells. The assay is classed as cell-based. To be noted: 24 hour; for Glucose Levels, MEAN % Control, +Insulin: peptide 10 μM + insulin 800 pM, percent of insulin (800 pM); for Glucose Levels, MEAN % Control, −Insulin: peptide 10 μM alone, percent of untreated control cells. The procedure:
The effect of the peptides on glucose production was assessed in the absence and presence of insulin using an assay of glucose levels in cultured cells such as rat hepatocytes. Peptides were initially prepared as 10 mM stock in DMSO and used at a final concentration of 10 μM (0.1% DMSO). Insulin (800 pM) was used as a partial inhibitor of glucose production. H4-IIE cells purchased from ATCC (Manassas, Va.) were seeded at 100,000 cells/well in standard medium (DMEM/high glucose+10% FBS+1× Glutamax+antibiotics) on 96-well plates and allowed to adhere overnight at 37° C. in a humidified atmosphere of 5% CO2/95% air. Approximately 24 h after seeding, the medium was removed, cells rinsed with glucose free DMEM, and Glucose Production Medium (glucose free DMEM+2 mM sodium pyruvate+10 mM sodium lactate) was added. The cultures were placed at 37° C. in a humidified atmosphere of 5% CO2/95% air overnight. The next morning, the medium was removed and fresh Glucose Production Medium containing compounds was added. Insulin at 800 pM was added to control wells. Peptides (10 μM) in the absence or presence of insulin (800 pM) were added to test wells. Cells in the presence of compounds were placed at 37° C. in a humidified atmosphere of 5% CO2/95% air overnight. After 24 hour incubation, conditioned medium from each well was transferred to a fresh 96-well plate for quantitation of glucose content. Quantitation of glucose levels was determined using an Amplex Red Glucose Assay kit (Abacm; Cambridge, Mass.) according to the manufacturer's instructions using a Cytation 3 plate reader at 570 nm (BioTek, Winooski, Vt.). Absorbance values were expressed as a percent of untreated control cells (maximum glucose production) for peptide alone samples or insulin (800 pM) for peptides in the presence of insulin (800 pM. Glucose levels for insulin (800 pM) treatment were ˜80-90% of the untreated control values. The results are reported in Table 15.

Regarding MRVIRMCLGVGLLGDLAG [SEQ ID NO: 2], the “Free Fatty Acid Levels, MEAN % ISO” value in assay [1] (Table 6) amounted to 26.4%. Moreover, the “Free Fatty Acid Levels, MEAN % ISO” value in assay [1] (Table 12) came to 26%. Also, in assay [2], the “Glucose Levels, MEAN % Control, +Insulin” value worked out at 79.7% and the “Glucose Levels, MEAN % Control, −Insulin” value is recorded as 121%.

Turning to “R(dA)IR(Nle)SLNVGLLGEL(dA) (R[dA]IR[Nle]SLNVGLLGEL[dA]) [SEQ ID NO: 15]”, the “Free Fatty Acid Levels, MEAN % ISO” value in assay [1] (Table 12) came out at 101%. In assay [2], the “Glucose Levels, MEAN % Control, +Insulin” value was 95.2% and the “Glucose Levels, MEAN % Control, −Insulin” value came out at 94.3%.

On to “RVIR(Nle)CLNVGLLGEL(dA)G (RVIR[Nle]CLNVGLLGEL[dA]G) [SEQ ID NO: 6]”, for which the “Free Fatty Acid Levels, MEAN % ISO” value in assay [1] (Table 12) is 78%. In assay [2], the “Glucose Levels, MEAN % Control, +Insulin” value amounted to 82.5% and the “Glucose Levels, MEAN % Control, −Insulin” value is recorded as 109%.

For the substance “RVIR(Nle)SLNVGLEGEL(dA) (RVIR[Nle]SLNVGLEGEL[dA]) [SEQ ID NO: 14]”, the “Free Fatty Acid Levels, MEAN % ISO” value in assay [1] (Table 12) is given as 64%. In addition, in assay [2], the “Glucose Levels, MEAN % Control, +Insulin” value came to 97.8% and the “Glucose Levels, MEAN % Control, −Insulin” value worked out at 104%.

As to “RVIR(Nle)SLNVGLLGEL(dA)G (RVIR[Nle]SLNVGLLGEL[dA]G) [SEQ ID NO: 8]”, the “Free Fatty Acid Levels, MEAN % ISO” value in assay [1] (Table 12) is on record as 64%. In addition, in assay [2], the “Glucose Levels, MEAN % Control, +Insulin” value was 63.5% and the “Glucose Levels, MEAN % Control, −Insulin” value worked out at 105%.

Turning to “RVIRMCLGVGLLGDL(dA)G (RVIRMCLGVGLLGDL[dA]G) [SEQ ID NO: 4]”, the “Free Fatty Acid Levels, MEAN % ISO” value in assay [1] (Table 6) stood at 20.1%; in assay [1] (Table 12), 20%. Moreover, in assay [2], the “Glucose Levels, MEAN % Control, +Insulin” value worked out at 54.3%. In addition, in assay [2], the “Glucose Levels, MEAN % Control, −Insulin” value is 119%.

For the substance “RVIRMCLGVGLLGDLAG (disulfide I:6-II:6) [SEQ ID NO: 26]”, the “Free Fatty Acid Levels, MEAN % ISO” value in assay [1] (Table 12) is 39%. In assay [2], the “Glucose Levels, MEAN % Control, +Insulin” value was 21% and the “Glucose Levels, MEAN % Control, −Insulin” value was 114%.

For RVIRMCLGVGLLGDLAG [SEQ ID NO: 3], the “Free Fatty Acid Levels, MEAN % ISO” value in assay [1] (Table 6) was 19.7%; in assay [1] (Table 12) it was 20%. In assay [2], the “Glucose Levels, MEAN % Control, +Insulin” value is 39.9%. Besides, in assay [2], the “Glucose Levels, MEAN % Control, −Insulin” value is on record as 121%.

Regarding “RVIRMCLGVGLLGDLAGK{PEG12} (RVIRMCLGVGLLGDLAGK(PEG12′)) [SEQ ID NO: 17]”, the “Free Fatty Acid Levels, MEAN % ISO” value in assay [1] (Table 12) was 31%. In assay [2], the “Glucose Levels, MEAN % Control, +Insulin” value was found to be 18.8% and the “Glucose Levels, MEAN % Control, −Insulin” value is recorded as 105%.

With “RVIRMCLGVGLLGDLAGK{PEG12} (chain 1 RVIRMCLGVGLLGDLAGK(PEG12′); chain 2 RVIRMCLGVGLLGDLAGK(PEG12′); disulfide I:6-II:6) [SEQ ID NO: 28]”, in assay [2], the “Glucose Levels, MEAN % Control, +Insulin” value was 23.9% and the “Glucose Levels, MEAN % Control, −Insulin” value is listed as 92.0%.

In the case of “RVIRMCLNNGLLGEL(dA)G (RVIRMCLNNGLLGEL[dA]G) [SEQ ID NO: 9]”, the “Free Fatty Acid Levels, MEAN % ISO” value in assay [1] (Table 12) was 30%. Besides, in assay [2], the “Glucose Levels, MEAN % Control, +Insulin” value was 19.1% and the “Glucose Levels, MEAN % Control, −Insulin” value is recorded as 103%.

“RVIRMCLNNGLNGEL(dA)E (RVIRMCLNNGLNGEL[dA]E) [SEQ ID NO: 23]”: in assay [1] (Table 12), the “Free Fatty Acid Levels, MEAN % ISO” value was 61%. Moreover, in assay [2], the “Glucose Levels, MEAN % Control, +Insulin” value was 3.1% and the “Glucose Levels, MEAN % Control, −Insulin” value stood at 36%.

For “RVIRMCLNVGLLGEL(dA)E (RVIRMCLNVGLLGEL[dA]E) [SEQ ID NO: 12]”, the “Free Fatty Acid Levels, MEAN % ISO” value in assay [1] (Table 12) is recorded as 22%. In addition, in assay [2], the “Glucose Levels, MEAN % Control, +Insulin” value is recorded as 57.8% and the “Glucose Levels, MEAN % Control, −Insulin” value amounted to 107%.

Turning to “RVIRMCLNVGLLGEL(dA)G [SEQ ID NO: 5] (RVIRMCLNVGLLGEL[dA]G)”, the “Free Fatty Acid Levels, MEAN % ISO” value came out at 18.3% in assay [1] (Table 6) and 18% in assay [1] (Table 12). The “Glucose Levels, MEAN % Control, +Insulin” value in assay [2] (listed as 5) is given as 54.5%. Further, the “Glucose Levels, MEAN % Control, −Insulin” value in assay [2] (listed as 5) was determined as 117%.

“RVIRMCLNVGLNGEL(dA)G (RVIRMCLNVGLNGEL[dA]G) [SEQ ID NO: 11]”: the “Free Fatty Acid Levels, MEAN % ISO” value in assay [1] (Table 12) was 36%. Besides, in assay [2], the “Glucose Levels, MEAN % Control, +Insulin” value turned out to be 32.7% and the “Glucose Levels, MEAN % Control, −Insulin” value was found to be 105%.

Turning to “RVIRMCLNVGNLGEL(dA)G (RVIRMCLNVGNLGEL[dA]G) [SEQ ID NO: 10]”, in assay [1] (Table 12), the “Free Fatty Acid Levels, MEAN % ISO” value was found to be 29%. In addition, in assay [2], the “Glucose Levels, MEAN % Control, +Insulin” value worked out at 38% and the “Glucose Levels, MEAN % Control, −Insulin” value was 101%.

On to “RVIRMSLNVGLEGEL(dA) (RVIRMSLNVGLEGEL[dA]) [SEQ ID NO: 13]”, for which, in assay [1] (Table 12), the “Free Fatty Acid Levels, MEAN % ISO” value turned out to be 71%. Besides, in assay [2], the “Glucose Levels, MEAN % Control, +Insulin” value amounted to 46.8% and the “Glucose Levels, MEAN % Control, −Insulin” value is 71.4%.

In the case of “RVIRMSLNVGLLGEL(dA)G (RVIRMSLNVGLLGEL[dA]G) [SEQ ID NO: 7]”, the “Free Fatty Acid Levels, MEAN % ISO” value in assay [1] (Table 12) turned out to be 77%. Further, in assay [2], the “Glucose Levels, MEAN % Control, +Insulin” value is given as 74.4% and the “Glucose Levels, MEAN % Control, −Insulin” value came out at 89.2%.
